Two compounds from patent publication US6770661B2, “Aryl substituted pyridines and their use” (Euro-Celtique S.A., priority 2001, dated 2004) can be followed below.

For this experiment, the target named is rBIIa/beta 1 sodium channels expressed in Xenopus oocytes (Rattus norvegicus, UniProt P04775). Description: Electrophysiological in vitro assay, two-electrode voltage clamp, sodium channel blockade. The note with it: apparent inhibition constant for the inactivated state, from single point inhibition data; holding potential −120 mV, 4 second depolarization; read-out: RBIIA/β1 Ki. It is filed as cell-based. How it is done:
Electrophysiological Assay:
Electrophysiological Assay was used to measure potencies of compounds of the present invention rBIIa/beta 1 sodium channels expressed in Xenopus oocytes.
Preparation of cRNA encoding cloned rat brain type IIa (rBIIa) and beta 1 (β1): cDNA clones encoding the rat brain beta 1 subunit were cloned in house using standard methods, and mRNA were prepared by standard methods. mRNA encoding rBIIa was provided by Dr. A. Golden (UC Irvine). The mRNAs were diluted and stored at −80° C. in 1 μL aliquots until injection. […]
Electrophysiology: Membrane current responses were recorded in frog Ringer solution containing 115 mM NaCl, 2 mM KCl, 1.8 mM CaCl2, 5 mM HEPES, pH 7.4. […]
Voltage protocols for evoking sodium channel currents: The standard holding potential for whole oocyte clamp was −120 mV. […] Peak currents were measured as the maximum negative current after depolarizing voltage steps. […]
The purpose was to find compounds that are state dependent modifiers of neuronal sodium channels. […] Sodium currents were measured at this test pulse before and after the application of the tested compound. Data was acquired using pClamp 8.0 software and analyzed with clampfit software (Axon instruments). […]

Chain of rBIIa/beta 1 sodium channels expressed in Xenopus oocytes (P04775 whole entry): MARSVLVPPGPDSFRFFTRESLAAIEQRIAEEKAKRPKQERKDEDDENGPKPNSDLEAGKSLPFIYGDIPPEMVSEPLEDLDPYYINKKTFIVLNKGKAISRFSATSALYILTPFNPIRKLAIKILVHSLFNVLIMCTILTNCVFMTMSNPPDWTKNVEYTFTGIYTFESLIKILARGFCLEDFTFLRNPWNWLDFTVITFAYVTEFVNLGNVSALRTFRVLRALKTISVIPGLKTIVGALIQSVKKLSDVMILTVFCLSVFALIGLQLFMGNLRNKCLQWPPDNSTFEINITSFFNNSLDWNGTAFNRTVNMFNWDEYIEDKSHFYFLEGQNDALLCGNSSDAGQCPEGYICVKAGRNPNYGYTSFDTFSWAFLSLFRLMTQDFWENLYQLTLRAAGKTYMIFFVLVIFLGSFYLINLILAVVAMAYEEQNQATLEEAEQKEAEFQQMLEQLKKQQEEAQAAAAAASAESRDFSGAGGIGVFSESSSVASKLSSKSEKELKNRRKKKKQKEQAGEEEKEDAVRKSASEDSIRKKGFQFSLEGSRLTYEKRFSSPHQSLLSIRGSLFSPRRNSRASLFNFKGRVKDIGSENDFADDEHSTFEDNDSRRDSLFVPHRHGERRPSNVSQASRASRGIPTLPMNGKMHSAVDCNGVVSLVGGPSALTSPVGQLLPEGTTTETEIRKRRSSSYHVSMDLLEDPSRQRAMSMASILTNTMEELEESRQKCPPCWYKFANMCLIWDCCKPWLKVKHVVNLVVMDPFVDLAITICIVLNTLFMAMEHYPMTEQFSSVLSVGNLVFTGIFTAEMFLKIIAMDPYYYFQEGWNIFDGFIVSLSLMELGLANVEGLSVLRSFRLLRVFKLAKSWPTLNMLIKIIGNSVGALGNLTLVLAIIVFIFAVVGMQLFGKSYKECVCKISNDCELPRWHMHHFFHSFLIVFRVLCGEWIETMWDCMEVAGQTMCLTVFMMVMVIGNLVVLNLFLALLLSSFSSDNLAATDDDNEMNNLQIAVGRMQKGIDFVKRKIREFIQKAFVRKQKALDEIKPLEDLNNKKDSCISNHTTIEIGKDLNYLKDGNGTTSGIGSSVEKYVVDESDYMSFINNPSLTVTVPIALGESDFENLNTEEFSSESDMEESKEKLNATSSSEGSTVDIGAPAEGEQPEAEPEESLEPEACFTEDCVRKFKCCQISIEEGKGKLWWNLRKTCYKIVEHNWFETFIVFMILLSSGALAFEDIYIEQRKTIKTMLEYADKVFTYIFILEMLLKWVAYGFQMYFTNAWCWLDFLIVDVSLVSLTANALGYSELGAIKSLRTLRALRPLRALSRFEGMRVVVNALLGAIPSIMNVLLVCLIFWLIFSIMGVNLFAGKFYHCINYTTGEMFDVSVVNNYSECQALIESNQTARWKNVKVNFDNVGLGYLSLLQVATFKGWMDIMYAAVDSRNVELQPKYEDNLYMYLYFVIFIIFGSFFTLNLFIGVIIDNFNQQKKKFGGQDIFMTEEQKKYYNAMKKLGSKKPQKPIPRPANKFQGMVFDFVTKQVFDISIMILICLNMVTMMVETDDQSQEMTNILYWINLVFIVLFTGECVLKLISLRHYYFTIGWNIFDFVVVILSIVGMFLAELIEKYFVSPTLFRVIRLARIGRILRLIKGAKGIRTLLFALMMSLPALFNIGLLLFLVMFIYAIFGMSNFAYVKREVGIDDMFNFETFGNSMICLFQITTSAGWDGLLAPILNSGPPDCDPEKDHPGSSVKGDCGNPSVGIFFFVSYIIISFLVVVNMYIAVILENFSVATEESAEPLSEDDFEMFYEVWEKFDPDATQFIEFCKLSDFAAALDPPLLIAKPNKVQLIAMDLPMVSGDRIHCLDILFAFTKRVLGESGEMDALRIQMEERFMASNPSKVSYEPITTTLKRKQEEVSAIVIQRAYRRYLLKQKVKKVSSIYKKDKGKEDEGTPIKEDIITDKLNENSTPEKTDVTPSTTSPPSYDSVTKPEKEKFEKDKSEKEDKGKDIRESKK
Chain of rBIIa/beta 1 sodium channels expressed in Xenopus oocytes (Q00954 19-218 partner): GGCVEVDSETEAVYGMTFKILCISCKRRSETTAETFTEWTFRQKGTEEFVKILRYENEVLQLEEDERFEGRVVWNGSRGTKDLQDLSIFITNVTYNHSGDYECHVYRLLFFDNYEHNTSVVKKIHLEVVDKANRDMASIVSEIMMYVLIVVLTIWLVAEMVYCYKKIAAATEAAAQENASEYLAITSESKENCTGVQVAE

In the case of `NC(=O)c1cc(N2CCOCC2)cc(-c2ccc(Oc3ccc(F)cc3)cc2)n1` [2-[4-(4-Fluorophenoxy)phenyl]-4-N-morpholinylpyridine-6-carboxamide], the Ki amounted to 290 nM.
For `Cc1cc(OCCN2CCCCC2)cc(-c2ccc(Oc3ccc(F)cc3)cc2)n1` [2-[4-(4-Fluorophenoxy)phenyl]-6-methyl-4-[2-(N-piperidinyl)ethoxy]-pyridine] the value was 180 nM.
